Reference: PubChem BioAssay AID1361 (SRMLSC, 2008)
Calls of active or inactive are those of the source. The rule behind the calls is not given here.

Experiment: mitochondrial fusion inhibitors, confirmation, cell-based, chemical genetic, wild-type and mutant (AID 1361)
Conditions: Cell-based mitochondrial fusion phenotype, imaging
[1] = mutant cells, measured here: mutant cell line IC50

| IC50 (WT cells) | IC50 [1] | Compound |
| --- | --- | --- |
| 21 µM | > 25 µM | CC(=O)N1N=C(c2ccc(C)cc2)OC1c1ccc(Br)cc1 (stereo not given) |
| 6.52 µM | > 25 µM | CCCC[n+]1c(-c2ccc(Cl)cc2Cl)csc1Nc1ccccc1 |
| 19.9 µM | > 25 µM | COc1ccc(/C=C/C(=O)N2CCN(c3ccccn3)CC2)c2ccccc12 |
| 13.7 µM | > 25 µM | CCCN(CCC)C(=O)CC(c1ccccc1)c1cc(Br)ccc1O (stereo not given) |
| > 25 µM (inactive) | > 25 µM | CC(C)CCNC(=O)CN(CC1CCCO1)C(=O)CCC(=O)Nc1ccccn1 (stereo not given) |
| 19.5 µM | 22.5 µM | CCOc1ccccc1N1CCN(C(=S)NC(=O)C23CC4CC(CC(C4)C2)C3)CC1 |
| > 25 µM (inactive) | > 25 µM | CCc1ccc(CCC(=O)Nc2ccccc2C(=O)O)o1 |
| 15 µM | 22.4 µM | O=C(c1c(F)c(F)c(F)c(F)c1F)N(Cc1ccccc1)Cc1ccccc1 |
| 19.1 µM | > 25 µM | O=C(c1ccc(C(F)(F)F)cc1)N1CCC(=O)N(C(COCc2ccc(Cl)cc2)Cc2ccccc2)CC1 (stereo not given) |
| > 25 µM (inactive) | > 25 µM | CN1CC(=O)Nc2ccc(F)cc2C1=O |
| > 25 µM (inactive) | > 25 µM | Cc1nc(C)c(-c2csc(Nc3cccc(O)c3)n2)s1 |
| 16 µM | > 25 µM | COc1ccc2nc(NC(=O)CN(c3ccc(C)cc3)S(=O)(=O)c3c(C)nn(C)c3C)sc2c1 |
| 5.84 µM | 9.97 µM | CC1(C(=O)OCC(=O)c2c[nH]c3ccccc23)CC1(Cl)Cl (stereo not given) |
| 17.8 µM | 19.4 µM | COc1ccc(-c2cc3nc(C)cc(N4CC(C)CC(C)C4)n3n2)cc1 (stereo not given) |
| > 25 µM (inactive) | > 25 µM | O=C(COc1ccccc1[N+](=O)[O-])N/N=C/C=C/c1ccco1 |
| 7.44 µM | 25 µM | C/C(=N\NC(=S)NCc1ccccc1)c1ccc2ccccc2c1OC(F)F |
| > 25 µM (inactive) | > 25 µM | CCOC(=O)CC(=O)CSc1nc(C)nc2c1oc1ccccc12 |
| > 25 µM (inactive) | > 25 µM | COc1cc(OC)cc(C(=O)N2CCC(n3c(C)nc4cc(F)ccc43)CC2)c1 |
| 14.4 µM | > 25 µM | Cc1ccc(NC(=S)N(CCCN2CCCC2)Cc2cccn2Cc2ccc(Cl)cc2)cc1 |
| 22.4 µM | > 25 µM | Cc1ccc(C(C(=O)NC2CCCC2)N(C(=O)Cc2cccs2)c2ccc(C)c(C)c2)o1 (stereo not given) |
| > 25 µM (inactive) | > 25 µM | Cc1cc(CC(C)C)n(-c2nc3ccccc3c(=O)n2OCc2ccccc2)n1 |
| 18.8 µM | > 25 µM | O=C(Nc1ccc(C(O)(C(F)(F)F)C(F)(F)F)cc1)c1ccc(Cl)c([N+](=O)[O-])c1 |
| 22.1 µM | > 25 µM | Cc1cc(C)n(CCc2nc(-c3ccc(C(C)(C)C)cc3)cs2)n1 |
| 8.8 µM | > 25 µM | COCCNC(=S)N(CCc1c(C)[nH]c2ccc(Cl)cc12)Cc1cccs1 |
| > 25 µM (inactive) | > 25 µM | CCN(CC)S(=O)(=O)c1cccc(C(=O)Nc2sc3c(c2C(N)=O)CCCC3)c1 |
| > 25 µM (inactive) | > 25 µM | Nn1c(SCC(=O)Nc2ccc3c(c2)OCO3)nnc1-c1ccncc1 |
| 18.8 µM | > 25 µM | O=C(N/N=C/c1cccc(O)c1)c1ccc(COc2ccccc2Br)cc1 |

| IC50 (WT cells) | IC50 [1] | Compound |
| --- | --- | --- |
| 4.55 µM | > 25 µM | CCOC(=O)Cn1c(=NC(=O)c2ccc([N+](=O)[O-])s2)sc2ccccc21 |
| 9.35 µM | > 25 µM | C(=N\Nc1nc(N2CCCCCC2)nc(N2CCCCCC2)n1)/c1ccccc1 |
| 16.6 µM | 22 µM | Cc1ccccc1/C(N)=N/OC(=O)N1c2ccccc2Sc2ccccc21 |
| > 25 µM (inactive) | > 25 µM | CCOP(=O)(OCC)c1nc(/C=C/c2ccccc2)oc1NCc1ccccc1 |
| 10.9 µM | > 25 µM | Cc1ccc(C(C(=O)NCC2CCCO2)N(Cc2ccccc2)C(=O)c2ccc(-c3ccccc3)[nH]2)o1 (stereo not given) |
| 24.4 µM | > 25 µM | CC1CCCCN1C(=O)Cn1cc(/C=C2/C(=O)Nc3ccccc32)c2ccccc21 (stereo not given) |
| 4.03 µM | 10.5 µM | O=C(C1=C[C@H](c2csc3ccccc23)C[C@H](OCc2ccc(CO)cc2)O1)N1CCN(Cc2ccccc2)CC1 |
| 18.9 µM (inactive) | > 12.5 µM | CCN1CCN(CCNC(=O)c2ccc(/C=C3\Sc4ccccc4N(Cc4ccccc4F)C3=O)cc2)CC1 |
| > 25 µM (inactive) | > 25 µM | CCN(Cc1cc2ccc(C)cc2[nH]c1=O)C(=O)c1ccncc1 |
| > 25 µM (inactive) | > 25 µM | Cc1nnc(NC(=O)c2sc3nc(-c4cccs4)cc(C(F)(F)F)c3c2N)s1 |
| 15.1 µM | > 25 µM | CC(C)OC(=O)C(C(=O)C(F)(F)F)c1cc(NS(=O)(=O)c2ccc3ccccc3c2)c2ccccc2c1O (stereo not given) |
| 20.9 µM | > 25 µM | CC#C[C@]1(O)CC[C@H]2[C@@H]3CCC4=CC(=O)CCC4=C3[C@@H](c3ccc(N(C)C)cc3)C[C@@]21C |
| > 25 µM (inactive) | > 25 µM | CC1CCc2c(sc(NC(=O)COC(=O)c3ccc(O)cc3)c2C#N)C1 (stereo not given) |
| 19.8 µM | > 25 µM | CCCCC(=O)NC(=S)Nc1ccccc1N1CCCCC1 |
| 23.4 µM | > 25 µM | O=c1c2ccccc2nc2n1C1(CCCCC1)Cc1ccccc1-2 |
| 8.39 µM | > 25 µM | Cc1onc(-c2ccccc2Cl)c1C(=O)Nc1nnc(-c2ccc(Br)cc2)s1 |
| 23.2 µM | > 25 µM | CN(CC(=O)Nc1ccccc1Sc1ccccc1)C1CCCCC1 |
| > 25 µM (inactive) | > 25 µM | Clc1ccc(CSc2nnc(-c3ccncc3)o2)c(Cl)c1 |
| > 25 µM (inactive) | > 25 µM | COc1ccc(CCn2nnnc2C(CC(C)C)N2CCN(c3ncccn3)CC2)cc1OC (stereo not given) |
| > 25 µM (inactive) | > 25 µM | CCOC(=O)N1CCN(C(=O)CN(C)S(=O)(=O)c2ccc3c(c2)C(C)(C)C(=O)N3C)CC1 |
| > 25 µM (inactive) | > 25 µM | CCOC(=O)C1CCc2nc3ccccc3c(=O)n21 (stereo not given) |
| > 25 µM (inactive) | > 25 µM | COc1ccc(-c2cc3nc(-c4ccccc4)cc(N4CCC(O)CC4)n3n2)cc1 |
| 17.3 µM | > 25 µM | CC(C)(C)Nc1nc(SCc2ccccc2)nc(N2CCOCC2)n1 |
| > 25 µM (inactive) | 21.8 µM | CN1/C(=C\C=Nc2ccc3ccccc3c2)C(C)(C)c2ccccc21 |
| > 25 µM (inactive) | > 25 µM | Cn1c(CN2CCCCC2)nc2cc(NC(=O)c3ccc(Cl)cc3)ccc21 |
| 19.3 µM | > 25 µM | Fc1ccc(Nc2nc(N/N=C/c3ccco3)nc(N3CCCCC3)n2)cc1 |
| > 25 µM (inactive) | > 25 µM | C=CCC(C(=O)OC)(C(=O)OC)c1ccc([N+](=O)[O-])cn1 |

| IC50 (WT cells) | IC50 [1] | Compound |
| --- | --- | --- |
| 12.4 µM | > 25 µM | Cc1nc2c(ccc3nc(NC(=O)Cc4ccccc4)sc32)s1 |
| 11.5 µM | > 25 µM | CC(C)Cn1c(CN(Cc2ccccc2)Cc2ccccc2)nc2c1c(=O)n(C)c(=O)n2C |
| > 25 µM (inactive) | > 25 µM | CC(C)(C)n1nnnc1C(c1ccc(Cl)cc1)N(Cc1cccnc1)Cc1ccco1 (stereo not given) |
| 20.4 µM | > 25 µM | CC(C)c1ccccc1OCC(=O)NC1CCCc2ccccc21 (stereo not given) |
| 7.48 µM | 20.7 µM | CC(C)C(=O)N(c1cc2sc(=O)oc2c2ccccc12)S(=O)(=O)c1cccs1 |
| 13.4 µM (inactive) | 9.8 µM | Cc1cc(Cl)ccc1OCC(=O)Nc1nc(-c2cccs2)cs1 |
| 5.8 µM | > 25 µM | O=C1c2ccccc2OC2(C=Cc3ccccc3O2)N1Cc1ccccc1 (stereo not given) |
| > 25 µM (inactive) | > 25 µM | Cc1cc(C)cc(NC(=S)NC2CC3CCC(C2)N3Cc2ccco2)c1 (stereo not given) |
| 13.9 µM | > 25 µM | O=S(=O)(NCC(Nc1ccc(Cl)cc1)c1ccccc1)c1ccccc1 (stereo not given) |
| 20.6 µM | > 25 µM | CCOC(=O)c1c(C)[nH]c(C)c1C(=O)COC(=O)/C=C/c1cccc(C(F)(F)F)c1 |
| 15.9 µM | > 25 µM | CCn1c(CCCOc2ccc(Cl)cc2Cl)nnc1SCC(=O)Nc1cc(F)ccc1C |
| > 25 µM (inactive) | > 25 µM | COc1ccc(NC(=O)CN(c2ccc(C)cc2)S(C)(=O)=O)c(OC)c1 |
| 4.12 µM | > 25 µM | CC(=O)N(C)c1ccc(OCC(O)Cn2c3ccc(Cl)cc3c3cc(Cl)ccc32)cc1 (stereo not given) |
| > 25 µM (inactive) | > 25 µM | CN(C)c1ccc(O)c2c1CC1CC3[C@@H](N(C)C)C(=O)C(C(N)=O)=C(O)[C@]3(O)C(=O)C1=C2O (stereo not given in full) |
| 14.7 µM | > 25 µM | Cc1cccc(COCC(CC(C)C)N2CCN(C(=O)c3ccc(C(C)(C)C)cc3)CCC2=O)c1 (stereo not given) |
| 16.5 µM | > 25 µM | O=C(CC(Nc1ccc(F)cc1)c1ccccc1)c1ccccc1 (stereo not given) |
| > 25 µM (inactive) | > 25 µM | O=C(c1cc(Cl)cc(Cl)c1)N1CCC(=O)N(C(COCc2ccccc2)Cc2ccccc2)CC1 (stereo not given) |
| 11 µM | > 25 µM | CCOC(=O)C1=C(CC)Nc2ccccc2N/C1=N\S(=O)(=O)c1ccc2ccccc2c1 |
| > 25 µM (inactive) | > 25 µM | CCOC(=O)c1ccc2c(c1)n(CC)c(/C=C/N(C)c1ccccc1)[n+]2CC |
| > 25 µM (inactive) | > 25 µM | O=C(COC(=O)c1ccccn1)Nc1cccc(Cl)c1Cl |
| > 25 µM (inactive) | > 25 µM | CCOc1c(OC(C)=O)ccc(/C=C/c2ccc3cccc(OC(C)=O)c3n2)c1[N+](=O)[O-] |
| > 25 µM (inactive) | > 25 µM | CC(C)COC(=O)c1cccc2c1-c1ccccc1/C2=N\O |
| > 25 µM (inactive) | > 25 µM | O=C(COC(=O)c1ccccc1C(=O)c1ccc(Cl)c([N+](=O)[O-])c1)NC1CCCCCC1 |
| 14.3 µM | > 25 µM | CCOc1ccc(NS(=O)(=O)c2ccc(NC(=S)NC(=O)CC(C)C)cc2)cc1 |
| > 25 µM (inactive) | > 25 µM | COc1cccc(-c2nc(-c3ccccn3)no2)c1 |
| > 25 µM (inactive) | > 25 µM | Cc1nn(-c2ccccc2)c(C)c1NC(=O)c1ccc(S(=O)(=O)N2CCCC2)cc1 |
